Values quoted from earlier work in patent publication US20060183185A1, “Method for the synthesis of astaxanthin” (priority 2004, published 2006).

Conditions: liposome systems; appropriate dose

CC1=C(/C=C/C(C)=C/C=C/C(C)=C/C=C/C=C(C)/C=C/C=C(C)/C=C/C2=C(C)C(=O)C(O)CC2(C)C)C(C)(C)CC(O)C1=O (stereo not shown) [astaxanthin]
suppression of the peroxyl radical chain reaction: completely suppress
